Test results as given in PubChem BioAssay (NCI).
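Method: 48-hour compound exposure of cells in 96-well plates, five concentrations, linear interpolation of endpoints. Here, GI50 denotes the concentration required for 50% inhibition of growth. TGI marks complete inhibition of growth.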

What was measured:
Assay in all cases: DTP human tumour cell line panel, 48 h
HT29 colon = tested on: HT29 colon
UACC-257 melanoma = tested on: UACC-257 melanoma
MCF7 breast = tested on: MCF7 breast
SNB-19 CNS = tested on: SNB-19 CNS
MOLT-4 leukemia = tested on: MOLT-4 leukemia
MDA-MB-435 = tested on: MDA-MB-435
DU-145 prostate = tested on: DU-145 prostate
HL-60(TB) leukemia = tested on: HL-60(TB) leukemia
HOP-62 NSCLC = tested on: HOP-62 NSCLC
KM12 colon = tested on: KM12 colon
SW-620 colon = tested on: SW-620 colon
CCRF-CEM leukemia = tested on: CCRF-CEM leukemia
SK-MEL-2 melanoma = tested on: SK-MEL-2 melanoma
HCT-15 colon = tested on: HCT-15 colon
HCC-2998 colon = tested on: HCC-2998 colon
COLO 205 colon = tested on: COLO 205 colon
BT-549 breast = tested on: BT-549 breast
PC-3 prostate = tested on: PC-3 prostate
A498 renal = tested on: A498 renal
SK-MEL-28 melanoma = tested on: SK-MEL-28 melanoma
HOP-92 NSCLC = tested on: HOP-92 NSCLC
SF-539 CNS = tested on: SF-539 CNS
MALME-3M melanoma = tested on: MALME-3M melanoma
UACC-62 melanoma = tested on: UACC-62 melanoma
NCI-H460 lung = tested on: NCI-H460 lung
CAKI-1 renal = tested on: CAKI-1 renal
786-0 renal = tested on: 786-0 renal
RXF 393 renal = tested on: RXF 393 renal
EKVX NSCLC = tested on: EKVX NSCLC
HS 578T breast = tested on: HS 578T breast
SK-MEL-5 melanoma = tested on: SK-MEL-5 melanoma
OVCAR-5 ovarian = tested on: OVCAR-5 ovarian
SF-295 CNS = tested on: SF-295 CNS
IGROV1 ovarian = tested on: IGROV1 ovarian
K-562 leukemia = tested on: K-562 leukemia
RPMI-8226 leukemia = tested on: RPMI-8226 leukemia
SK-OV-3 ovarian = tested on: SK-OV-3 ovarian
UO-31 renal = tested on: UO-31 renal
OVCAR-8 ovarian = tested on: OVCAR-8 ovarian
SR leukemia = tested on: SR leukemia
M14 melanoma = tested on: M14 melanoma
ACHN renal = tested on: ACHN renal
MDA-MB-231 breast = tested on: MDA-MB-231 breast
SN12C renal = tested on: SN12C renal
NCI/ADR-RES ovarian = tested on: NCI/ADR-RES ovarian
SNB-75 CNS = tested on: SNB-75 CNS
OVCAR-3 ovarian = tested on: OVCAR-3 ovarian
HCT-116 colon = tested on: HCT-116 colon
OVCAR-4 ovarian = tested on: OVCAR-4 ovarian
A549 NSCLC = tested on: A549 NSCLC
T-47D breast = tested on: T-47D breast
U251 CNS = tested on: U251 CNS
SF-268 CNS = tested on: SF-268 CNS
NCI-H522 lung = tested on: NCI-H522 lung
NCI-H226 lung = tested on: NCI-H226 lung
TK-10 renal = tested on: TK-10 renal

For O=C(CSc1nnc(-c2ccc(Cl)cc2)n1-c1ccccc1)Nc1ccc(Br)cc1, the GI50 (HT29 colon) was over 50000 nM, the TGI (HT29 colon) was over 50000 nM and the GI50 (UACC-257 melanoma) was over 50000 nM. The TGI (UACC-257 melanoma) was over 50000 nM, the GI50 (MCF7 breast) was over 50000 nM and the TGI (MCF7 breast) was over 50000 nM. It also gave a GI50 (SNB-19 CNS) of 1890 nM, a TGI (SNB-19 CNS) of over 50000 nM and a GI50 (MOLT-4 leukemia) of over 50000 nM. It also gave a TGI (MOLT-4 leukemia) of over 50000 nM, a GI50 (MDA-MB-435) of over 50000 nM and a TGI (MDA-MB-435) of over 50000 nM. The GI50 (DU-145 prostate) was over 50000 nM, the TGI (DU-145 prostate) was over 50000 nM and the GI50 (HL-60(TB) leukemia) was over 50000 nM. For the same compound, the TGI (HL-60(TB) leukemia) was over 50000 nM, the GI50 (HOP-62 NSCLC) was 1870 nM and the TGI (HOP-62 NSCLC) was over 50000 nM. It also gave a GI50 (KM12 colon) of over 50000 nM, a TGI (KM12 colon) of over 50000 nM and a GI50 (SW-620 colon) of over 50000 nM. The TGI (SW-620 colon) was over 50000 nM, the GI50 (CCRF-CEM leukemia) was over 50000 nM and the TGI (CCRF-CEM leukemia) was over 50000 nM. For the same compound, the GI50 (SK-MEL-2 melanoma) was over 50000 nM, the TGI (SK-MEL-2 melanoma) was over 50000 nM and the GI50 (HCT-15 colon) was over 50000 nM. The TGI (HCT-15 colon) was over 50000 nM, the GI50 (HCC-2998 colon) was over 50000 nM and the TGI (HCC-2998 colon) was over 50000 nM. For the same compound, the GI50 (COLO 205 colon) was over 50000 nM, the TGI (COLO 205 colon) was over 50000 nM and the GI50 (BT-549 breast) was over 50000 nM. The TGI (BT-549 breast) was over 50000 nM, the GI50 (PC-3 prostate) was over 50000 nM and the TGI (PC-3 prostate) was over 50000 nM.

COc1cccc(N2CCN(c3ncnc4c3[nH]c3ccc(F)cc34)C[C@@H]2C)c1 was tested, and the GI50 (A498 renal) was 2850 nM, the TGI (A498 renal) was 8030 nM and the GI50 (SK-MEL-28 melanoma) was 1470 nM. For the same compound, the TGI (SK-MEL-28 melanoma) was 2910 nM, the GI50 (HT29 colon) was 2790 nM and the TGI (HT29 colon) was 9850 nM. For the same compound, the GI50 (UACC-257 melanoma) was 1880 nM, the TGI (UACC-257 melanoma) was 3620 nM and the GI50 (HOP-92 NSCLC) was 2280 nM. The TGI (HOP-92 NSCLC) was 6920 nM, the GI50 (SF-539 CNS) was 2270 nM and the TGI (SF-539 CNS) was 5650 nM. It also gave a GI50 (MALME-3M melanoma) of 1360 nM, a TGI (MALME-3M melanoma) of 3430 nM and a GI50 (UACC-62 melanoma) of 716 nM. For the same compound, the TGI (UACC-62 melanoma) was 2120 nM, the GI50 (MCF7 breast) was 1530 nM and the TGI (MCF7 breast) was 3450 nM. The GI50 (NCI-H460 lung) was 2530 nM, the TGI (NCI-H460 lung) was 7340 nM and the GI50 (CAKI-1 renal) was 1670 nM. The TGI (CAKI-1 renal) was 5580 nM, the GI50 (786-0 renal) was 2050 nM and the TGI (786-0 renal) was 5240 nM. It also gave a GI50 (SNB-19 CNS) of 2550 nM, a TGI (SNB-19 CNS) of 6900 nM and a GI50 (RXF 393 renal) of 2240 nM. It also gave a TGI (RXF 393 renal) of 5450 nM, a GI50 (EKVX NSCLC) of 1880 nM and a TGI (EKVX NSCLC) of 6160 nM. The GI50 (HS 578T breast) was 1770 nM, the TGI (HS 578T breast) was 8520 nM and the GI50 (MOLT-4 leukemia) was 999 nM. For the same compound, the TGI (MOLT-4 leukemia) was 4650 nM, the GI50 (MDA-MB-435) was 1590 nM and the TGI (MDA-MB-435) was 3180 nM. It also gave a GI50 (SK-MEL-5 melanoma) of 1310 nM, a TGI (SK-MEL-5 melanoma) of 2580 nM and a GI50 (OVCAR-5 ovarian) of 2280 nM. The TGI (OVCAR-5 ovarian) was 6160 nM, the GI50 (DU-145 prostate) was 1380 nM and the TGI (DU-145 prostate) was 2670 nM. It also gave a GI50 (SF-295 CNS) of 1610 nM, a TGI (SF-295 CNS) of 3350 nM and a GI50 (HL-60(TB) leukemia) of 1250 nM. The TGI (HL-60(TB) leukemia) was 5190 nM, the GI50 (IGROV1 ovarian) was 1710 nM and the TGI (IGROV1 ovarian) was 4670 nM. It also gave a GI50 (K-562 leukemia) of 1120 nM, a TGI (K-562 leukemia) of over 100000 nM and a GI50 (HOP-62 NSCLC) of 1230 nM. It also gave a TGI (HOP-62 NSCLC) of 2760 nM, a GI50 (RPMI-8226 leukemia) of 492 nM and a TGI (RPMI-8226 leukemia) of 3600 nM. For the same compound, the GI50 (SK-OV-3 ovarian) was 2430 nM, the TGI (SK-OV-3 ovarian) was 7470 nM and the GI50 (UO-31 renal) was 467 nM. It also gave a TGI (UO-31 renal) of 1680 nM, a GI50 (OVCAR-8 ovarian) of 762 nM and a TGI (OVCAR-8 ovarian) of 2040 nM. It also gave a GI50 (KM12 colon) of 1220 nM, a TGI (KM12 colon) of 2730 nM and a GI50 (SR leukemia) of 2710 nM. The TGI (SR leukemia) was over 100000 nM, the GI50 (SW-620 colon) was 2270 nM and the TGI (SW-620 colon) was 6070 nM. The GI50 (M14 melanoma) was 1360 nM, the TGI (M14 melanoma) was 2730 nM and the GI50 (CCRF-CEM leukemia) was 603 nM. For the same compound, the TGI (CCRF-CEM leukemia) was over 100000 nM, the GI50 (ACHN renal) was 1490 nM and the TGI (ACHN renal) was 3720 nM. For the same compound, the GI50 (MDA-MB-231 breast) was 2270 nM, the TGI (MDA-MB-231 breast) was 6470 nM and the GI50 (SN12C renal) was 1170 nM. For the same compound, the TGI (SN12C renal) was 2460 nM, the GI50 (NCI/ADR-RES ovarian) was 1210 nM and the TGI (NCI/ADR-RES ovarian) was 4350 nM. For the same compound, the GI50 (SNB-75 CNS) was 1690 nM, the TGI (SNB-75 CNS) was 3060 nM and the GI50 (SK-MEL-2 melanoma) was 1440 nM. The TGI (SK-MEL-2 melanoma) was 2820 nM, the GI50 (OVCAR-3 ovarian) was 1500 nM and the TGI (OVCAR-3 ovarian) was 5590 nM. For the same compound, the GI50 (HCT-116 colon) was 1220 nM, the TGI (HCT-116 colon) was 3130 nM and the GI50 (OVCAR-4 ovarian) was 852 nM. The TGI (OVCAR-4 ovarian) was 3860 nM, the GI50 (A549 NSCLC) was 1900 nM and the TGI (A549 NSCLC) was 5960 nM. For the same compound, the GI50 (T-47D breast) was 310 nM, the TGI (T-47D breast) was 1640 nM and the GI50 (HCT-15 colon) was 1750 nM. It also gave a TGI (HCT-15 colon) of 4420 nM, a GI50 (U251 CNS) of 2280 nM and a TGI (U251 CNS) of 6080 nM. For the same compound, the GI50 (SF-268 CNS) was 1980 nM, the TGI (SF-268 CNS) was 6720 nM and the GI50 (NCI-H522 lung) was 592 nM. It also gave a TGI (NCI-H522 lung) of 2020 nM, a GI50 (NCI-H226 lung) of 1320 nM and a TGI (NCI-H226 lung) of 3030 nM. For the same compound, the GI50 (HCC-2998 colon) was 2610 nM, the TGI (HCC-2998 colon) was 8320 nM and the GI50 (TK-10 renal) was 2140 nM. The TGI (TK-10 renal) was 4420 nM, the GI50 (COLO 205 colon) was 1430 nM and the TGI (COLO 205 colon) was 2800 nM. The GI50 (BT-549 breast) was 343 nM, the TGI (BT-549 breast) was 1430 nM and the GI50 (PC-3 prostate) was 912 nM. For the same compound, the TGI (PC-3 prostate) was 3540 nM.
